Assay results taken from patent US6858430B1, “Process for cultivation of algae” (Council of Scientific and Industrial Research, priority 2000, dated 2005).

System: pigmented filamentous callus of Eucheuma
Assay: Enhancement of somatic embryogenesis and micro-propagule production in embedded pigmented callus cultures by plant growth regulators
Format: cell-based, Eucheuma striatum (=Kappaphycus alvarezii)
Settings: 23° C., one month
Text: The production of micro-propagules clonally through somatic embryogenesis of pigmented callus has been established. The somatic embryogenesis and micro-propagule production may further be enhanced by subculturing thin section of pigmented filamentous callus blocks (2 mm×3 mm×2 mm) in 3 mm thick agar plates (0.3-0.6% agar) with PES medium as embedded cultures. The callus blocks implanted in an agar medium grew rapidly in one month and formed colored spots in an agar with abundantly growing branched filamentous pigmented callus. The newly regenerated filamentous callus from blocks eventually transformed to produce densely pigmented (dark brown colour) micro-colonies similar to somatic embryos in branches of some filaments. […] Transfer of such filamentous callus with somatic embryos from solid (agar plates) medium to liquid PES medium facilitated rapid growth and morphogenesis in micro-propagules.
The production of micro-propagules clonally through somatic embryogenesis of pigmented callus of Eucheuma has been carried out. The somatic embryogenesis and micro-propagule production may be enhanced by subculturing thin section of pigmented filamentous callus blocks (2 mm×3 mm×2 mm) in 3 mm thick agar plates (0.4% agar) with PES medium as embedded cultures at 23° C. under cool white fluorescent fights at 50 μmol photon m^−2s^−1 irradiance with a 12:12 light and dark cycle. […]

Row | Compound | production of micro-propagules / formation of somatic embryos in pigmented filamentous callus (0.1, 1.0 mg l-1 naphthalenacetic acid alone in 0.4% agar PES medium) | production of micro-propagules / formation of somatic embryos in pigmented filamentous callus (0.1 mg l-1 each of naphthalenacetic acid and 6-benzylaminopurine combined in 0.4% agar PES medium)
1 | naphthalenacetic acid | further enhanced | –
2 | c1ccc(CNc2ncnc3nc[nH]c23)cc1 [6-benzylaminopurine] | – | further enhanced
